Experimental data published in patent US10272110B2, “Methods for promoting HSC engraftment” (CHILDREN'S MEDICAL CENTER CORPORATION, priority 2006, dated 2019).
Entries after “also recorded” stand apart in the source; their conditions may differ.

Tests used:
[1] = system: runx1, cmyb expression; experiment: qPCR of HSC gene expression in treated zebrafish embryos; assay type: in vivo
[2] = system: cmyb/lmo2+ HSCs; experiment: Confocal quantification of HSCs in cmyb:GFP x lmo2:dsRed bigenic embryos; assay type: in vivo, zebrafish
Description: A long-acting derivative, 16,16-dimethyl-PGE2 (dmPGE2, 10 μM) caused an increase in runx1/cmyb+ AGM HSCs in 78% of embryos examined (97/124). AGM HSCs were inhibited by indomethacin (10 μM) treatment in 90% of embryos analyzed (92/102). […] Transgenic cmyb:GFP zebrafish with green fluorescent HSCs and myeloid progenitor cells were crossed to lmo2:dsRed fish that have red fluorescent endothelial cells and HSCs to visualize the effects of chemical exposure in vivo. […] FIG. 3.
Live 36 hpf treated bigenic zebrafish embryos were embedded in 1% low-melting point agarose containing 0.4 mg/ml Tricaine-S for confocal imaging. cmyb-GFP transgenic reporter lines were created from a BAC containing the cmyb promoter genomic sequence (Galloway, Zhu, Lin, Zon, unpublished); lmo2:DsRed fish were created as described^27. For HSC quantification, cmyb/lmo2+ positive cells were counted in projections of z-stack images (n=10/treatment).

[3] = system: runx1/cmyb+ AGM HSCs; experiment: Heat shock wnt-pathway transgenic embryos treated with PG drugs: AGM HSC formation; assay type: in vivo, zebrafish
Description: More specifically, Wnt signaling through its main transcriptional mediator β-catenin plays an important role in controlling tissue patterning, cell fate decisions, and proliferation in many embryonic contexts, including the development and differentiation of organs. […] Whether wnt signaling has a role during HSC formation in zebrafish was determined using heat shock inducible activators and repressors of the wnt pathway. Briefly, wnt-inducible embryos were harvested and heat shocked for twenty minutes at 38° C. Genotypes were sorted by GFP expression, and the AGM HSCs analyzed by runx1/cmyb expression in situ. […] This is the first evidence in any organism that wnt signaling is required for AGM HSC formation.
Additionally, indomethacin and dmPGE2 was used to investigate the interaction of the wnt and prostaglandin pathways during HSC development and in marrow recovery following injury. FIG. 13 reflects the potential points of interaction of the PG and wnt pathways. […] Furthermore, dmPGE2 can rescue the inhibitory effects of dkk activation on AGM HSC formation at 36 hpf, as shown by in situ hybridization for runx1/cmyb.

[4] = system: AGM HSCs; experiment: Rescue of AGM HSCs in the mindbomb mutant; assay type: in vivo, zebrafish; conditions: preliminary studies
Excerpt: The mutant mindbomb lacks an E3 ubiquitin ligase for delta, the ligand of notch receptors. As such, mindbomb mutants completely lack notch signaling, and fail to make any hematopoietic stem cells in the AGM. Itoh et al., 4 Devel. Cell 67-82 (2003). Overexpression of runx1 rescues the number of c−myb positive cells in the AGM in mindbomb. This implies that runx is an important target of notch. […] This may be due to a defect in the ability of the cells to respond to prostaglandin E2; notch signaling is likely to be required earlier in the development of the AGM region than prostaglandin E2. Dose response curves with prostaglandin E2 in the mindbomb mutant may shed light on this. Conversely, Notch ICD embryos that have increased stem cell number by 36 hpf may be incubated with Cox inhibitors to see if prostaglandin signaling has a role in mediating AGM HSC upregulation. Other hematopoietic mutants may be studied similarly.

[5] = system: wnt activity; experiment: wnt reporter TOP:dGFP zebrafish embryos; assay type: in vivo; conditions: vs control
Excerpt: Clinical experience in patients with APC mutations has shown that inhibition of prostaglandin synthesis results in decreased wnt mediated polyp formation. […] These interactions were examined in vivo using a wnt reporter zebrafish transgenic line, TOP:dGFP. At fifty-percent epiboly, embryos were subjected either to nothing (control), indomethacin, or PGE2, and the amount of wnt signaling activated in the embryo assessed by GFP induction driven from the wnt binding site. Analysis of alterations in GFP expression in the head was analyzed by in situ hybridization. […] FIG. 12.

[6] = system: wnt activity; experiment: wnt activity in kidney marrow of irradiated Top:dGFP adults; assay type: in vivo, zebrafish; conditions: day three post irradiation
Description: To determine if prostaglandin pathway manipulation can alter wnt activity in the kidney marrow repopulation in the adult, the effects of dmPGE2 and indomethacan was examined further in Top:dGFP lines. […] FIG. 14. To discern whether modulation of prostaglandin signaling can modify the wnt mediated effects on kidney marrow recovery following irradiation, wnt genes were activated by heat shock at 38° C. at two days post irradiation and then. exposure to prostaglandin pathway drugs at one day post heat shock. The hs:wnt8-GFP fish were exposed to indomethacin, while the dkk1, axin, and dnTCF transgenic fish were exposed to dmPGE2. Whole kidney marrow was analyzed by FACS on day ten post-irradiation.

[7] = system: kidney marrow (KM) hematopoietic lineages; experiment: Kidney marrow irradiation recovery assay in adult zebrafish; conditions: 50 μM vs DMSO, sublethally irradiated adult zebrafish
Description: Wild-type fish were sublethally irradiated, exposed to dmPGE2, and evaluated for kinetics of KM recovery by FACS 11 (FIG. 4A).
Adult zebrafish were exposed to 23 Gy of γ-irradiation. […] Whole KM isolated on days 0, 2, 4, 7, 10, 14 was subjected to FSC/SSC FACS analysis to identify hematopoietic lineages (n=5/treatment×3 replicates).

[8] = system: runx1/cmyb+ AGM HSCs; conditions: 10 μM
Description: A chemical genetic screen was conducted to identify novel pathways that modulate definitive HSC formation during zebrafish embryogenesis. FIG. 1. Genes such as runx1 and cmyb, required for HSC development during mammalian hematopoiesis, are expressed in the ventral wall of the dorsal aorta in a region analogous to the mammalian AGM at thirty-six hours post-fertilization (hpf). […] Wild-type embryos were incubated with individual compounds from the three-somite stage until thirty-six hpf. Probes for runx1 and cmyb were combined and utilized to detect HSCs by in situ hybridization.
Wild-type age-matched embryos were arrayed into 48-well plates (˜5 embryos/well) of individual test compounds and exposed from 3-somites until 36 hpf. […] In situ hybridization for runx1 and cmyb was performed to assess HSCs. Compounds were retested at 10 μM, 20 μM, and 50 μM. Stem cell specificity was assessed using flk1 at 36 hpf. PGE2, PGI2, dmPGE2 and all cox inhibitors (Sigma) were used at 10 μM to 20 μM.
Qualitative scoring (# embryos with altered HSCs/# scored) of runx1/cmyb was conducted using the following criteria: Normal/unchanged=continuous line of runx1/cmyb+ endothelial cells and occasional hematopoietic clusters. Decreased/absent=reduction in runx1/cmyb+ cells, including the presence of large gaps in the line of HSCs, isolated positive cells, or absence of expression. Increased/excess=enhancement in runx1/cmyb^+ cells, including many HSC clusters, a thickened line of HSCs, or ectopic expression.

Structure (SMILES): CCCCC(C)(C)[C@H](O)/C=C/[C@H]1[C@H](O)CC(=O)[C@@H]1C/C=C\CCCC(=O)O [dmPGE2, 16,16-dimethyl-PGE2]
- cmyb expression by qPCR (in words) ([1]; 10 μM): significant alterations
- runx1 expression by qPCR, enhancement ([1]; dmPGE2 10 μM): 3 fold
- HSC numbers by confocal microscopy (mean±SD) ([2]; 10 μM, bigenic embryos, n=10/treatment, DMSO 23.3±5.0): 38.0±2.2
- HSC numbers along the floor of the aorta by confocal microscopy (in words) ([2]; 36 hpf live embryos): significantly increased HSCs
- rescue of inhibited AGM HSC formation under wnt repression (dkk activation) ([3]; 36 hpf, runx1/cmyb in situ hybridization): partially rescued; also recorded: can rescue
- rescue of HSC formation in embryos over-expressing dnTCF ([3]; preliminary results): not sufficient
- rescue of the mindbomb mutant [4]: failed to demonstrate any type of rescue
- wnt activity (GFP expression) in TOP:dGFP embryos [5]: enhance wnt signaling
- wnt activity (GFP) in kidney marrow of Top:dGFP adults [6]: significantly enhanced wnt activity
- rate of hematopoietic reconstitution of the KM [7]: significantly enhanced
- embryos with increase in runx1/cmyb+ AGM HSCs [8]: 78%
- increased runx1/cmyb+ HSCs (# embryos altered/# scored) ([8]; 36 hpf): 97/124
